Experimental data taken from patent US10774076B2, “Benzazole compounds and methods for making and using the compounds” (Rigel Pharmaceuticals, Inc., priority 2015, dated 2020).

Experiments:
IL23p19 = test: LPS Induced IL23p19 in THP-1 Cells (with IFNγ Primed) Assay; assay type: cell-based; conditions: Homo sapiens, IFNγ primed (50 ng/mL), LPS 1 ug/mL, 18 hours, 10 pt, read-out: IL23-p19 ELISA, THP1-IFNy, LPS, 10 pt EC50
Method in brief: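 IFNγ-primed (50 ng/mL, ~18 h) THP-1 cells in RPMI/10% FBS pre-incubated 1 h with serially diluted compound, then stimulated 18 h at 37 °C with 1 ug/mL LPS. Supernatant IL-23p19 quantified by chemiluminescent sandwich ELISA (anti-IL-12 p40/p70 detection); EC50 from curve fit. Toxicity checked by Cell Titer Glo.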

IL23-p19 = test: Compound screening using DC cells: LPS-induced IL-23 (p19/p40) ELISA in IFNγ-primed dendritic cells differentiated from human PBMC; assay type: cell-based; conditions: Dendritic cell, human PBMC-derived dendritic cells, LPS 1 μg/ml, 18 hours, 10 pt
Method in brief: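 Dendritic cells were derived from human PBMC over 7 days with GMCSF (100 ng/ml) and IL4 (20 ng/ml), then primed 24 h with 50 ng/ml IFNγ. After 1 h pre-incubation with compound, cells were stimulated with LPS (1 μg/ml final) for 18 h at 37 °C. IL-23 in supernatant measured by p19-capture/p40-detection chemiluminescent ELISA; cytotoxicity checked by CellTiter-Glo.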

| EC50 (IL23p19) [nM] | EC50 (IL23-p19) [nM] | SMILES |
| --- | --- | --- |
| 88.7 | 101 | O=C(Nc1cc2oc(N3CCOCC3)nc2cc1N1CCCC(F)(F)C1)c1csc(-c2cn[nH]c2)n1 [Compound I-44, N-(5-(3,3-difluoropiperidin-1-yl)-2-morpholinobenzo[d]oxazol-6-yl)-2-(1H-pyrazol-4-yl)thiazole-4-carboxamide] |
| 25 | 41 | O=C(Nc1cc2oc(N3CCOCC3)nc2cc1N1CCCC(F)C1)c1csc(-c2cn[nH]c2)n1 (stereo not shown) [Compound I-40, N-(5-(3-fluoropiperidin-1-yl)-2-morpholinobenzo[d]oxazol-6-yl)-2-(1H-pyrazol-4-yl)thiazole-4-carboxamide] |
| 75.7 | 157 | O=C(Nc1cc2oc(N3CCOCC3)nc2cc1N1CCC(F)CC1)c1ccc(-c2cn[nH]c2)o1 [Compound I-23, N-(5-(4-fluoropiperidin-1-yl)-2-morpholinobenzo[d]oxazol-6-yl)-5-(1H-pyrazol-4-yl)furan-2-carboxamide] |

The next lines start with the molecule.

| SMILES | EC50 (IL23p19) [nM] | EC50 (IL23-p19) [nM] |
| --- | --- | --- |
| CN1CCN(c2nc3cc(N4CCCCC4)c(NC(=O)c4ccc(-c5cc[nH]n5)o4)cc3o2)CC1 [Compound I-17, N-(2-(4-methylpiperazin-1-yl)-5-(piperidin-1-yl)benzo[d]oxazol-6-yl)-5-(1H-pyrazol-3-yl)furan-2-carboxamide] | 1230 | 1020 |
| Cc1cc(-c2ccc(C(=O)Nc3cc4oc(N5CCOCC5)nc4cc3N3CCCCC3)o2)ccn1 [Compound I-10, 5-(2-methylpyridin-4-yl)-N-(2-morpholino-5-(piperidin-1-yl)benzo[d]oxazol-6-yl)furan-2-carboxamide] | 4630 | 2990 |
